Molecules are shown by their SMILES.

The test system of data set [1] is kidney fibroblast (COS-7) cancer cell line. Nature of the data set: In vitro antitumor screening, MTT assay, COS-7. Format: cell-based. Particulars: Chlorocebus aethiops, 50% inhibition of cell viability, COS-7 cell line. As to the method: (§1) The new analogs were tested for in vitro antitumor efficacy adopting the reported procedure (Mosmann, 1983[46]; Denizot and Lang, 1986[13]; Gerlier and Thomasset, 1986[21]).
(§2) In vitro antitumor screening of compounds 5a-t was carried out on cervical (Hela) and kidney fibroblast (COS-7) cancer cell lines in accord to MTT assay (Mosmann, 1983[46]; Denizot and Lang, 1986[13]; Gerlier and Thomasset, 1986[21]) and utilizing doxorubicin as a standard drug. The concentrations of the compounds that cause 50% inhibition of cell viability (IC50, µM) were calculated. […]
In vitro antitumor screening […]
HCT-116 (colon) and MCF-7 (breast) cancer cell lines adopting MTT assa y (Mosmann, 1983; Denizot and Lang, 1986; Gerlier and Thomasset, 1986) and usin g 5- fluorouracil as a reference antitumor agent. Cells were cultured in Roswell Park Memorial Institute (RPM I) 1640 medium wit h 10% fetal bovine serum, penicillin (100 units/mL) and streptomycin (100 µg/mL) at 37 ° C in an atmosphere of 5% CO 2 were added.
(§3) Cells were placed in 96-multiwell microtiter plates (10^4 cells/well), for 24 h rs at 37 °C and in an atmosphere of 5% CO2 before tr eatment with the compounds to allow attachment of the cells to the wall of the plate. The tested compounds were dissolved in DMSO and diluted with phosphate buffer saline (PBS) to obtain different concentrations. Tested compounds of dif-ferent concentrations were added to each well and cells were incubated with the compounds for 48 hrs at 37 °C and in an atmosphere of 5% CO2. All tests were performed in triplicates.
(§4) The treated cells were wash ed with PBS and 100 µL of 3 -(4,5-dimeth ylthiazol-2-yl )-2,5-diphe-n yltetrazolium bromide solution (MTT) (5 mg/m L MTT st ock in PBS diluted to 1 mg/ mL with 10% RPMI-1640 medium) was added. The 9 6 -multiwell plates were read b y microarra y read er Perkinelmer vector 3V multilabel counter model 1420 (Perkinelmer, Boston, MA) for optical densit y at 490 nm (Mosmann, 1983; Denizot and Lang, 1986; Gerlier and Thomasset, 1986).
(§5) The relative percenta ge cell viabilit y was calculate d from the following equation: […]
(§6) The relation between surviving fraction and drug concentration is plotted to get the survival curve for HepG2, HCT-116 and M CF-7 cancer cell lines . […]
(§7) Denizot F, Lang R. Rapid colorimetric assa y for cell growth and survival. Modifications to the tetrazolium dye procedure giving improved sensitivity an d reliability. J Immunol Methods. 1986;89:271-7.
(§8) Gerlier D, Thomasset T. Use of MTT colorimetric assa y to measure cell activation. J Immunol Methods. 1986; […]
(§9) Mosmann T. Rapid colorimetric assa y for cellular growth and survival: Application to proliferation and cytotox- […]
(§10) Oberling C, Gu erin M. The role of viruses in the production of cancer . Ad v Cancer Res. 1954;2:353-423.
(§11) Sheeja KR, Kuttan G, Kuttan R. C ytotox ic and antitumour activit y of Berberin. Amala Res Bull. 1997;17:73-6.
A general note: Tetrazolium assays rely on reduction of a dye to a coloured formazan, in cell work by metabolically active cells.

The test system of data set [2] is cervical (Hela) cancer cell line. Nature of the data set: In vitro antitumor screening, MTT assay, Hela. Format: cell-based. Particulars: Homo sapiens, 50% inhibition of cell viability. The method, then:
as §1, §2
In vitro antitumor screening
Compounds 5a-t were screened for in vitro antitumor activity against HepG2 (liver), HCT-116 (colon) and MCF-7 (breast) cancer cell lines adopting MTT assa y (Mosmann, 1983; Denizot and Lang, 1986; Gerlier and Thomasset, 1986) and usin g 5- fluorouracil as a reference antitumor agent. Cells were cultured in Roswell Park Memorial Institute (RPM I) 1640 medium wit h 10% fetal bovine serum, penicillin (100 units/mL) and streptomycin (100 µg/mL) at 37 ° C in an atmosphere of 5% CO 2 were added.
as §3, §4, §5, §6, §7, §8, §9, §10, §11

The term IC50 denotes the concentration that gives 50% inhibition. The low end stands for greater potency, the high end for weaker potency. In general, melting point refers to the temperature, or range, at which the solid turns liquid. As for `O=c1oc2ccccc2cc1-c1csc(NN=Cc2ccccc2Br)n1` [5a, 3-(2-(2-(2-Bromobenzylidene)hydrazino)thiazol-4-yl)-2H-chromen-2-one], the melting point lay in the range of 212 to 213 °C. In data set [1], the IC50 was > 50 µM. For the same compound, the IC50 in data set [2] was > 50 µM.
`N#Cc1ccccc1C=NNc1nc(-c2cc3ccccc3oc2=O)cs1` [5b, 3-(2-(2-(2-Cyanobenzylidene)hydrazino)thiazol-4-yl)-2H-chromen-2-one]: the melting point is 219 to 220 °C. Further, the IC50 in data set [1] was > 50 µM. Further, the IC50 in data set [2] is > 50 µM.
As for `N#Cc1cccc(C=NNc2nc(-c3cc4ccccc4oc3=O)cs2)c1` [5c, 3-(2-(2-(3-Cyanobenzylidene)hydrazino)thiazol-4-yl)-2H-chromen-2-one], the melting point lay in the range of 224 to 225 °C. In data set [1], the IC50 is > 50 µM. The IC50 in data set [2] is > 50 µM.
Consider `O=c1oc2ccccc2cc1-c1csc(NN=Cc2ccc(C(F)(F)F)cc2)n1` [5d, 3-(2-(2-(4-(Trifluoromethyl)benzylidene)hydrazino)thiazol-4-yl)-2H-chromen-2-one], for which the melting point fell in the range of 189 to 190 °C. For the same compound, the IC50 in data set [1] is > 50 µM. For the same compound, the IC50 in data set [2] was > 50 µM.
`Cc1cccc(C=NNc2nc(-c3cc4ccccc4oc3=O)cs2)c1` [5e, 3-(2-(2-(3-Methylbenzylidene)hydrazino)thiazol-4-yl)-2H-chromen-2-one] gave a melting point of 190 to 191 °C. Moreover, in data set [1], the half-inhibitory concentration (IC50) is > 50 µM. Besides, the concentration for half-maximal inhibition (IC50) in data set [2] is > 50 µM.
As for `O=c1oc2ccccc2cc1-c1csc(NN=Cc2c(F)cccc2Cl)n1` [5g, 3-(2-(2-(2-Chloro-6-fluorobenzylidene)hydrazino)thiazol-4-yl)-2H-chromen-2-one], the melting point lay within 195 to 196 °C. The IC50 in data set [1] is > 50 µM. Besides, the IC50 in data set [2] was > 50 µM.
`O=c1oc2ccccc2cc1-c1csc(NN=Cc2ccc(O)c(Br)c2)n1` [5i, 3-(2-(2-(3-Bromo-4-hydroxybenzylidene)hydrazino)thiazol-4-yl)-2H-chromen-2-one] came in with a melting point of 182 to 184 °C. For the same compound, in data set [1], the IC50 is > 50 µM. Moreover, the IC50 in data set [2] was > 50 µM.
With `Cc1ccc(O)c(C=NNc2nc(-c3cc4ccccc4oc3=O)cs2)c1` [5j, 3-(2-(2-(2-Hydroxy-5-methylbenzylidene)hydrazino)thiazol-4-yl)-2H-chromen-2-one], the melting point was 206 to 207 °C. The concentration for half-maximal inhibition (IC50) in data set [1] is > 50 µM. Further, in data set [2], the IC50 is > 50 µM.
In turn, `Cc1cc(C=NNc2nc(-c3cc4ccccc4oc3=O)cs2)ccc1O` [5k, 3-(2-(2-(4-Hydroxy-3-methylbenzylidene)-hydrazino)thiazol-4-yl)-2H-chromen-2-one] displayed a melting point of 193 to 194 °C. In addition, in data set [1], the concentration for half-maximal inhibition (IC50) was > 50 µM. Moreover, the IC50 in data set [2] was > 50 µM.
`COc1ccc(C=NNc2nc(-c3cc4ccccc4oc3=O)cs2)c(OC)c1` [5l, 3-(2-(2-(2,4-Dimethoxybenzylidene)-hydrazino)thiazol-4-yl)-2H-chromen-2-one] showed a melting point of 219 to 220 °C. Besides, the IC50 in data set [1] was > 50 µM. Moreover, the concentration for half-maximal inhibition (IC50) in data set [2] was > 50 µM.
The compound `O=c1oc2ccccc2cc1-c1csc(NN=Cc2ccc(-c3ccccc3)cc2)n1` [5n, 3-(2-(2-((1,1'-Biphenyl)-4-ylmethylidene)-hydrazino)thiazol-4-yl)-2H-chromen-2-one] registered a melting point of 198 to 200 °C. For the same compound, the concentration for half-maximal inhibition (IC50) in data set [1] was > 50 µM. Moreover, the half-maximal inhibitory concentration (IC50) in data set [2] was > 50 µM.
`O=c1oc2ccccc2cc1-c1csc(NN=Cc2ccc3ccccc3c2)n1` [5o, 3-(2-(2-(Naphthalen-2-ylmethylidene)hydrazino)thiazol-4-yl)-2H-chromen-2-one] displayed a melting point of 225 to 227 °C. In addition, the IC50 in data set [1] is > 50 µM. Besides, the IC50 in data set [2] was > 50 µM.
Compound `O=c1oc2ccccc2cc1-c1csc(NN=Cc2ccc3ccccc3c2[N+](=O)[O-])n1` [5p, 3-(2-(2-((1-Nitronaphthalen-2-yl)methylidene)hydrazino)thiazol-4-yl)-2H-chromen-2-one] yielded a melting point of 211 to 213 °C. Besides, in data set [1], the 50% inhibitory concentration (IC50) was > 50 µM. The IC50 in data set [2] is > 50 µM.
`O=c1ccc2cc(C=NNc3nc(-c4cc5ccccc5oc4=O)cs3)ccc2o1` [5q, 6-((2-(4-(2-Oxo-2H-chromen-3-yl)thiazol-2-yl)hydrazono)methyl)-2H-chromen-2-one] showed a melting point of 181 to 183 °C. The 50% inhibitory concentration (IC50) in data set [1] was > 50 µM. In data set [2], the IC50 is > 50 µM.
`O=c1oc2ccccc2cc1-c1csc(NN=Cc2cc3ccccc3c3ccccc23)n1` [5s, 3-(2-(2-(Phenanthren-9-ylmethylidene)-hydrazino)thiazol-4-yl)-2H-chromen-2-one] gave a melting point of 245 to 247 °C. Also, the IC50 in data set [1] is > 50 µM. In addition, the IC50 in data set [2] is > 50 µM.
On to `O=c1oc2ccccc2cc1-c1csc(NN=Cc2cc3ccc4cccc5ccc(c2)c3c45)n1` [5t, 3-(2-(2-(Pyren-2-ylmethylidene)hydrazino)thiazol-4-yl)-2H-chromen-2-one], for which the melting point lay in the range of 237 to 239 °C. In data set [1], the half-maximal inhibitory concentration (IC50) is > 50 µM. For the same compound, in data set [2], the half-inhibitory concentration (IC50) was > 50 µM.
Take `COc1cccc2c1C(=O)c1c(O)c3c(c(O)c1C2=O)C[C@@](O)(C(=O)CO)C[C@@H]3O[C@H]1C[C@H](N)[C@H](O)[C@H](C)O1` [Doxorubicin, doxorubicin, reference compound]: the IC50 was 3.04 µM in data set [1] and 2.05 µM in data set [2].

The values above are taken from publication PMC5735336, “Microwave-assisted synthesis and antitumor evaluation of a new series of thiazolylcoumarin derivatives” (EXCLI Journal, 2017).
